For series [1], the system named is MDA-MB-231 cells. Kind of series: MTT assay cytotoxicity MDA-MB-231.
Description: (§4) The cells were incubated at 37° C. in a humidified atmosphere with 5% CO2.
(§5) 100 μL of cells were added to each well of a 96 well microtiter plate at a concentration of 4×10^4 cells/mL and incubated overnight to allow proper adhesion. (RPMI 8226 cells were plated at 4×10^5 cells/mL). The cells were treated with the panel of test compounds at a series of concentrations, along with vehicle control DMSO and untreated cells as controls. After 48 h incubation, 20 μL of MTT reagent (3-(4,5-dimethylthiazol-2-yl)-2,5-diphenyltetrazolium bromide) in PBS (5 mg/mL) was added to each well of the plates. The plate was incubated for 2 h at 37° C. For adherent cell lines, the media was removed from each well of the plate and the resulting formazan crystals dissolved in 100 μL of DMSO. For RPMI 8226 cells, 200 ul of DMF/SDS mix (50% DMF. 10% w/v SDS pH<4) was used to solubilize the formazan crystals. Optical density (OD) at 490 nm was measured using a microplate reader. Cells treated with 1 μM phenyl arsine oxide (PAO) served as a positive cell-killing control. Technical replicates of these assays were performed in biological quadruplicate, and the three best values were used for analysis in order to eliminate outliers. Data presented are the average IC50 value calculated from at least 3 technical replicates with the corresponding standard deviation.
Series [2] addresses T1, yeast proteasome yβ5 subunit (Saccharomyces cerevisiae, UniProt P23724+P30656).
T1 construct: measured using 8 μg/mL of purified yCP or iCP
Kind of series: Subunit selectivity, purified yeast proteasome yβ5. In kind it is biochemical. Conditions: 8 μg/mL purified yCP; ± SD; read-out: yβ5 IC50. The protocol: (§1) The compounds were diluted with lysis buffer; 10 μL of the compound-containing solution was added to the test wells at ten times the final concentration. […] The results are reported as the average of at least 3 technical replicates of IC50 values for proteasome inhibition.
(§2) Values and standard deviations were calculated from an assay performed in biological triplicate.

For series [3], the target named is T2, chymotrypsin-like activity of the 26S proteasome (Homo sapiens, UniProt P28074).
T2 construct: endogenous in cells; host or cells: Jurkat (ATCC TIB-152, E6-1 clone) cell lysate
T2 sequence (P28074 60-263): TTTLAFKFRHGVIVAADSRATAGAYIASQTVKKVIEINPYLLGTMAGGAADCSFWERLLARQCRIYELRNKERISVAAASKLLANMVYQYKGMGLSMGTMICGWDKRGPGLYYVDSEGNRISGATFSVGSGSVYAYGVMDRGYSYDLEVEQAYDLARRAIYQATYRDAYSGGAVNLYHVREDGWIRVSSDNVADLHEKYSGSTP
Kind of series: Proteasome assay, chymotrypsin-like (ChT-L) activity, Suc-LLVY-AMC, Jurkat cell lysate. In kind it is biochemical. The note with it: ± S.D. The protocol:
(§3) The lysate was stored at −80° C. until the sample was used for the proteasome assay.
as §1

For series [4], the target named is T3, β5 subunit of the 26S yeast proteasome (yCP) (Saccharomyces cerevisiae, UniProt P23724+P30656).
T3 construct: measured using 8 μg/mL of purified yCP or iCP
Kind of series: Protein-drug co-crystal structure. In kind it is binding. Conditions: X-ray crystallography. On the procedure: The binding mode of compound 11a in the yeast proteasome was examined. The yeast proteasome (yCP) has high homology with mammalian proteasomes but is easier to crystallize. Compound 11a was incubated at a high concentration with active yCP, and the enzyme-inhibitor complex was analyzed using X-ray crystallography.
Compound 11a is positioned in a kinked β-sheet-like conformation that is stabilized by hydrogen bonding with Thr21 and Gly47. The PI is further stabilized by the hydrophobic interaction of P3, whereas P2 and P4 lack any direct interactions within the binding pocket. The PI prevents the regeneration of the Thr1 catalytic site by complexing the water molecule generated by the hydrolysis of the β-lactone. The water molecule is stabilized in the binding pocket by residues Thr1, Ser131, and the hydroxyl group of the hydrolyzed lactone. […] The biological effects of P2 and P4 can be attributed to the pharmacokinetics of the cystargolide scaffold instead of binding to the β5 subunit of the proteasome.

The target of series [5] is T4, immunoproteasome iβ5 subunit (Homo sapiens, UniProt P20618+P28062).
T4 construct: purchased Enzo Life Sciences
Briefly: Subunit selectivity, purified immunoproteasome iβ5. The format is biochemical. Conditions: 8 μg/mL purified iCP; ± SD; read-out: iβ5 IC50. The protocol: as §1, §2

Series [6] relates to MCF7 cells. Kind of series: MTT assay cytotoxicity MCF7. (In general: Tetrazolium dyes change colour on reduction, which living cells bring about.)
Description: as §4, §5
The target of series [7] is T5, yeast proteasome yβ1 subunit (Saccharomyces cerevisiae, UniProt P25043+P38624).
T5 construct: measured using 8 μg/mL of purified yCP or iCP
Briefly: Subunit selectivity, purified yeast proteasome yβ1. Conditions: 8 μg/mL purified yCP; ± SD; read-out: yβ1 IC50. The format is biochemical. The protocol:
as §1, §2

Series [8] deals with T6, yeast proteasome yβ2 subunit (Saccharomyces cerevisiae, UniProt P25043+P25451).
T6 construct: measured using 8 μg/mL of purified yCP or iCP
Briefly: Subunit selectivity, purified yeast proteasome yβ2. The format is biochemical. Conditions: 8 μg/mL purified yCP; ± SD; read-out: yβ2 IC50. The protocol:
as §1, §2

Series [9] concerns RPMI 8226 cells. Briefly: MTT assay cytotoxicity RPMI 8226.
Series [10] addresses T7, trypsin-like activity of the 26S proteasome (Homo sapiens, UniProt Q99436).
T7 construct: endogenous in cells; host or cells: Jurkat (ATCC TIB-152, E6-1 clone) cell lysate
T7 sequence (Q99436 44-277): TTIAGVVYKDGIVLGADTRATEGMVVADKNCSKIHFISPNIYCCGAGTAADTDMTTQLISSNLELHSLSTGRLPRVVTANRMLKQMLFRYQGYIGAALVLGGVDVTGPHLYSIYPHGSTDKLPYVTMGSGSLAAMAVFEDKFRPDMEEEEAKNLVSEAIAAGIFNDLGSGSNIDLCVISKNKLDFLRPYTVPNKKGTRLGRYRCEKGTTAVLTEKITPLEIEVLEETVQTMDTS
Briefly: Proteasome assay, trypsin-like (T-L) activity, SUC-RLR-AMC, Jurkat cell lysate. In kind it is biochemical. Conditions: ± S.D., read-out: Proteasome Inhibition T-L-like IC50. On the procedure: as §3, §1

Series [11] has as its target T8, ChT-L activity of 26S proteasomes in intact MCF-7 cells (Homo sapiens, UniProt P28074).
T8 construct: endogenous in cells; host or cells: MCF7 cells (treated intact, then lysed)
T8 sequence (P28074 60-263): T2 sequence (P28074 60-263)
Briefly: Cell infiltration of PIs: proteasome inhibition in intact MCF7 cells. The format is cell-based. The note with it: intact versus lysed MCF-7 cells, 1 h. On the procedure: 100 μL MCF7 cells at a concentration of 500,000 cells/mL were added to a 96 well microtiter plate and incubated overnight at 37° C. and 5% CO2 to allow cells to adhere at 100% confluency. The cells were treated and then incubated for at 37° C. and 5% CO2 for 1 hour as a standard time to allow for drug infiltration. […] The plate was rocked on ice for 1 hr and then 90 μL of cell lysate was transferred to a black 96 well microtiter plate. 10 μL of lysis buffer was added to the top of all wells containing treated cells and one set of control wells. 10 μL of 1 mM of compound 8 was added to the second set of control wells as a positive control for proteasome inhibition. The plate was then incubated at 37° C. for 15 minutes to allow for control drug binding. Chymotrypsin-like activity was then measured by adding 10 μL of 100 μM Suc-LLVY-AMC in lysis buffer to each well and then incubating for 1 h at 37° C. […] Standard deviation for cell infiltration was calculated by propagating the error from the two IC50 values.
The difference between proteasome inhibition within intact versus lysed cells was evaluated as a representative measure of PIs ability to infiltrate cells and access intracellular proteasomes. […] Assays were performed in biological triplicate, and the data points are reported with the corresponding standard deviations. […]

Series [12] relates to MCF-7 breast cancer cell line. Briefly: Drug deactivation by serum: cytotoxicity towards MCF-7 in FBS, NBS or human serum. The format is cell-based. Conditions: MCF-7 cytotoxicity. On the procedure: The deactivation of compounds was evaluated by testing the toxicity of compounds 8 and 12a in three different types of serums (i.e., fetal bovine serum (FBS), newborn bovine serum (NBS), and human serum). FBS is taken during the development of a calf fetus, so the serum has less protein associated with the innate immune system, and less protein altogether compared to NBS and human serum. […] The structural optimization of compound 12a improved the serum stability of the drug: P3 was changed from isopropyl to CH2OBn, and P4 was changed from OBn to NHBn. The OBn group of P4 was more sensitive to deactivation than NHBn.
The MCF-7 cells were cultured in three different types of serum. Assays were performed in biological triplicate, and the data points are reported with the corresponding standard deviation.

Series [13] concerns cancer cells (MCF7, MDA-MB-231, RPMI 8226). Briefly: MTT cytotoxicity, cell line not given.
For series [14], the system named is RPMI 8226 cells.
The subject of series [15] is MDA-MB-231 cells.
Description: as §4, §5
The test system of series [16] is cancer cells (MCF7, MDA-MB-231, RPMI 8226).
Description: as §5
For series [17], the system named is MCF7 cells.
Description: as §4, §5

Read-outs that look alike come from different tables or passages of the source.

The term IC50 denotes the concentration that inhibits the measured activity by half. Regarding `C=CCOC(=O)[C@@H](NC(=O)[C@@H](NC(=O)[C@@H]1OC(=O)[C@H]1[C@@H](C)CC)C(C)C)C(C)C` [Compound 11a, Allyl((2R,3S)-3-((S)-sec-butyl)-4-oxooxetane-2-carbonyl)-L-valyl-L-valinate], the IC50 in the series on MDA-MB-231 cells [1] (read-out: Cytotoxicity MDA-MB-231 IC50, Table 4, MTT, 48 h) was 275 ± 112 nM; in series [2] it was 19.5 ± 0.8 nM; in series [3] (Table 4, P4 analogues, read-out: Proteasome Inhibition ChT-like IC50), 11.6 ± 2.8 nM; in series [5] it was 41.2 ± 15.2 nM; in the series with MCF7 cells [6] (read-out: Cytotoxicity MCF7 IC50, Table 4, MTT, 48 h), 311 ± 82 nM; in [7] it was 779 ± 42 nM. Further, the IC50 in series [8] was above 10000 nM; in the series with RPMI 8226 cells [9] (read-out: Cytotoxicity RPMI 8226 IC50, Table 4, MTT, 48 h), 94 ± 15 nM. The “binding mode in the crystal structure” value in series [4] is “binds covalently to Thr1Oγ at the active site of subunit β5 of the yCP”.
Turning to `CC(C)[C@H](NC(=O)[C@@H]1OC(=O)[C@H]1C1CC1)C(=O)N[C@H](C(=O)OCc1ccccc1)C(C)C` [Compound 9a, Benzyl ((2R,3S)-3-cyclopropyl-4-oxooxetane-2-carbonyl)-L-valyl-L-valinate], the IC50 was 2480 ± 433 nM in series [10] (Table 2, P1 analogues); above 100000 nM in the series on MDA-MB-231 cells [1] (Homo sapiens, MDA-MB-231, 48 h, read-out: Cytotoxicity MDA-MB-231 IC50); 12.2 ± 5.6 nM in [3] (Table 2, P1 analogues, read-out: Proteasome Inhibition ChT-like IC50); above 100000 nM in the series on MCF7 cells [6] (Homo sapiens, MCF7, 48 h, read-out: Cytotoxicity MCF7 IC50); 72000 ± 13800 nM in the series with RPMI 8226 cells [9] (Homo sapiens, RPMI-8226, 48 h, read-out: Cytotoxicity RPMI 8226 IC50). The “cellular infiltration / ability to inhibit intracellular proteasomes (in words)” value in [11] is “lowest performance”.
On to `CC[C@H](C)[C@@H]1C(=O)O[C@H]1C(=O)N[C@H](C(=O)N[C@@H](COCc1ccccc1)C(=O)NCc1ccccc1)C(C)C` [Compound 12a], for which the “fold decrease in activity with NBS or human serum instead of FBS” value in series [12] is on record as below 10 fold. The IC50 in the series with MDA-MB-231 cells [1] (Homo sapiens, MDA-MB-231, read-out: Cytotoxicity MDA-MB-231 IC50) was found to be 56.3 ± 3.09 nM; in series [2] it was 8.2 ± 1.4 nM; in series [3] (Table 5, read-out: Proteasome Inhib. ChT-L IC50), 0.647 ± 0.021 nM; in series [5], 33 ± 13.4 nM; in the series on MCF7 cells [6] (Homo sapiens, MCF7, read-out: Cytotoxicity MCF7 IC50), 93.9 ± 2.94 nM; in series [7] it was 20400 ± 12900 nM. Moreover, the IC50 was 13600 ± 5490 nM in [8] and 28.8 ± 1.09 nM with RPMI 8226 cells [9] (Homo sapiens, RPMI-8226, read-out: Cytotoxicity RPMI 8226 IC50). For the same compound, the “times less cytotoxic than carfilzomib” value in series [13] is on record as “about 10 times”.
Consider `CC[C@H](C)[C@@H]1C(=O)O[C@H]1C(=O)N[C@H](C(=O)N[C@@H](CC(C)C)C(=O)OCc1ccccc1)C(C)C` [Compound 10i, Benzyl((2R,3S)-3-((S)-sec-butyl)-4-oxooxetane-2-carbonyl)-L-valyl-L-leucinate], for which the IC50 in series [10] (Table 3, P2/P3 analogues) was 1350 ± 172 nM; in the series on RPMI 8226 cells [14], 156 ± 96 nM; with MDA-MB-231 cells [15], 287 ± 136 nM; in [3] (Table 3, P2/P3 analogues, read-out: Proteasome Inhibition ChT-like IC50), 7.8 ± 1.6 nM; in the series on MCF7 cells [17] it was 351 ± 31 nM. The “cytotoxicity IC50 for all three cell lines tested (in words)” value in series [16] is reported as “midrange nanomolar”.
